The values below come from patent publication US11795481B2, “Processes for producing a fermentation product” (Novozymes A/S, priority 2017, dated 2023).

One data set relates to multi-strain LAB culture. Briefly: SSF of control mash with 1% w/w infected mash, AA13 candidates, HPLC of organic acids and ethanol (Example 3). It is filed as cell-based. Conditions: SSF 32° C. up to 24 hours, 20% DS; for % delta Ethanol / % delta Lactic Acid: vs No Treatment. As for the experimental part: A control mash was prepared in-house with an industry relevant blend of AA369 and Protease Pfu using a Lab-O-Mat incubator for 2 hours at 85° C. and 36% DS to simulate typical industry conditions. The mash was then frozen prior to use in SSF. An infected mash was prepared by infecting the control mash with a multi-strain LAB culture grown in MRS. The bacteria in control mash was incubated overnight, and then frozen with 20% glycerol. For this experiment, 1% weight/weight of the infected mash was mixed into the control mash. This mimics an infection event at a large-scale ethanol facility. For SSF, all mash was prepared with 1000 ppm of urea to aid with yeast fermentation. All treatments were dosed with a baseline commercial glucoamylase GSA, while AA13 candidates were dosed at either 10 ug/g-DS or 50 ug/g-DS. SSF was performed at 5 g scale with 10 uL/g rehydrated Ethanol Red yeast at 32° C. for up to 24 hours at 20% DS. At the end of fermentation, samples were deactivated with 50 uL of 40% sulfuric acid and then centrifuged. The supernatant was filtered through a 0.2 μm filter and then measured for soluble carbohydrates and organic acids using an ion-exchange H-column on HPLC.

For data set [1] the following is noted: pH 4.5; cited from earlier work.

As to “Penicillium concentricum: Penicillium concentricum AA13 polypeptide of SEQ ID NO: 136”, in the data set on multi-strain LAB culture (AA13 dose 10 ug/g-DS), the “average Ethanol” value is on record as 78.1 g/L, the “average Lactic Acid” value is given as 3.3 g/L, the “% delta Ethanol” value is given as 0.6% and the “% delta Lactic Acid” value is listed as −0.6%. For the same molecule, in the data set on multi-strain LAB culture (AA13 dose 50 ug/g-DS), the “average Ethanol” value is on record as 78.2 g/L, the “average Lactic Acid” value came to 3.2 g/L, the “% delta Ethanol” value turned out to be 0.7% and the “% delta Lactic Acid” value is given as −3.2%.
Turning to “Penicillium paxilli: Penicillium paxiffi AA13 polypeptide of SEQ ID NO: 138”, in the data set with multi-strain LAB culture (AA13 dose 10 ug/g-DS), the “average Ethanol” value was determined as 77.8 g/L, the “average Lactic Acid” value was determined as 3.2 g/L, the “% delta Ethanol” value was found to be 0.2% and the “% delta Lactic Acid” value is −4.9%. Moreover, in the data set on multi-strain LAB culture (AA13 dose 50 ug/g-DS), the “average Ethanol” value amounted to 78.1 g/L, the “average Lactic Acid” value is reported as 3.1 g/L, the “% delta Ethanol” value is on record as 0.5% and the “% delta Lactic Acid” value was −5.7%.
For the molecule “Penicillium steckii: Penicillium steckii AA13 polypeptide of SEQ ID NO: 145”, in the data set with multi-strain LAB culture (AA13 dose 10 ug/g-DS), the “average Ethanol” value worked out at 76.6 g/L, the “average Lactic Acid” value stood at 3.5 g/L, the “% delta Ethanol” value is listed as −1.4% and the “% delta Lactic Acid” value was 4.5%. For the same molecule, in the data set on multi-strain LAB culture (AA13 dose 50 ug/g-DS), the “average Ethanol” value is 77.3 g/L, the “average Lactic Acid” value was determined as 3.3 g/L, the “% delta Ethanol” value is given as −0.4% and the “% delta Lactic Acid” value is −1.0%.
For “Aspergillus insuetus: Aspergillus insuetus AA13 polypeptide of SEQ ID NO: 130”, in the data set with multi-strain LAB culture (AA13 dose 10 ug/g-DS), the “average Ethanol” value was determined as 76.7 g/L, the “average Lactic Acid” value was found to be 3.4 g/L, the “% delta Ethanol” value is −1.2% and the “% delta Lactic Acid” value was 1.7%. Also, in the data set with multi-strain LAB culture (AA13 dose 50 ug/g-DS), the “average Ethanol” value is given as 77.2 g/L, the “average Lactic Acid” value is 3.4 g/L, the “% delta Ethanol” value is −0.6% and the “% delta Lactic Acid” value came to 2.1%.
For “Penicillium antarcticum: Penicillium antarcticum AA13 polypeptide of SEQ ID NO: 135”, in the data set with multi-strain LAB culture (AA13 dose 10 ug/g-DS), the “average Ethanol” value came to 76.4 g/L, the “average Lactic Acid” value was determined as 3.4 g/L, the “% delta Ethanol” value is given as −1.6% and the “% delta Lactic Acid” value was found to be 2.2%. Moreover, in the data set on multi-strain LAB culture (AA13 dose 50 ug/g-DS), the “average Ethanol” value is 76.2 g/L, the “average Lactic Acid” value is on record as 3.4 g/L, the “% delta Ethanol” value is given as −1.8% and the “% delta Lactic Acid” value came to 3.0%.
With “Cladosporium gossypiicola: Cladosporium gossypiicola AA13 polypeptide of SEQ ID NO: 131”, in the data set with multi-strain LAB culture (AA13 dose 10 ug/g-DS), the “average Ethanol” value was 77.5 g/L, the “average Lactic Acid” value amounted to 3.3 g/L, the “% delta Ethanol” value is −0.2% and the “% delta Lactic Acid” value was −1.8%. In the data set with multi-strain LAB culture (AA13 dose 50 ug/g-DS), the “average Ethanol” value is 78.5 g/L, the “average Lactic Acid” value was determined as 3.2 g/L, the “% delta Ethanol” value stood at 1.1% and the “% delta Lactic Acid” value is −4.6%.
As to “Penicillium viticola: Penicillium viticola AA13 polypeptide of SEQ ID NO: 146”, in the data set on multi-strain LAB culture (AA13 dose 10 ug/g-DS), the “average Ethanol” value was 76.6 g/L, the “average Lactic Acid” value was determined as 3.4 g/L, the “% delta Ethanol” value was −1.3% and the “% delta Lactic Acid” value was 2.2%. In addition, in the data set with multi-strain LAB culture (AA13 dose 50 ug/g-DS), the “average Ethanol” value came out at 77.8 g/L, the “average Lactic Acid” value was 3.4 g/L, the “% delta Ethanol” value stood at 0.2% and the “% delta Lactic Acid” value was 2.8%.
Regarding “Penicillium vulpinum: Penicillium vulpinum AA13 polypeptide of SEQ ID NO: 147”, in the data set on multi-strain LAB culture (AA13 dose 10 ug/g-DS), the “average Ethanol” value is 79.0 g/L, the “average Lactic Acid” value is recorded as 3.2 g/L, the “% delta Ethanol” value is on record as 1.7% and the “% delta Lactic Acid” value was −2.9%. In the data set on multi-strain LAB culture (AA13 dose 50 ug/g-DS), the “average Ethanol” value is on record as 78.3 g/L, the “average Lactic Acid” value was found to be 3.5 g/L, the “% delta Ethanol” value was 0.9% and the “% delta Lactic Acid” value amounted to 4.6%.
Penicillin [reference compound]: in the data set with multi-strain LAB culture (Penicillin dose 25 ppm), the “average Ethanol” value is on record as 80.1 g/L, the “average Lactic Acid” value is 1.2 g/L, the “% delta Ethanol” value was determined as 3.1% and the “% delta Lactic Acid” value is recorded as −62.4%.
“Penicillium samsonianum: Penicillium samsonianum AA13 polypeptide of SEQ ID NO: 140”: in the data set on multi-strain LAB culture (AA13 dose 10 ug/g-DS), the “average Ethanol” value is 77.1 g/L, the “average Lactic Acid” value amounted to 3.4 g/L, the “% delta Ethanol” value is given as −0.6% and the “% delta Lactic Acid” value is listed as 2.2%. In the data set on multi-strain LAB culture (AA13 dose 50 ug/g-DS), the “average Ethanol” value is 77.4 g/L, the “average Lactic Acid” value was determined as 3.4 g/L, the “% delta Ethanol” value is reported as −0.4% and the “% delta Lactic Acid” value is 2.0%.
As to “Penicillium sclerotiorum: Penicillium sclerotiorum AA13 polypeptide of SEQ ID NO: 141”, in the data set with multi-strain LAB culture (AA13 dose 10 ug/g-DS), the “average Ethanol” value amounted to 76.4 g/L, the “average Lactic Acid” value is 3.5 g/L, the “% delta Ethanol” value is reported as −1.6% and the “% delta Lactic Acid” value came out at 6.9%. Also, in the data set on multi-strain LAB culture (AA13 dose 50 ug/g-DS), the “average Ethanol” value is 78.1 g/L, the “average Lactic Acid” value came to 3.3 g/L, the “% delta Ethanol” value was 0.6% and the “% delta Lactic Acid” value is −0.9%.
Regarding “Penicillium hoeksii: Penicillium hoeksii AA13 polypeptide of SEQ ID NO: 137”, in the data set on multi-strain LAB culture (AA13 dose 10 ug/g-DS), the “average Ethanol” value is 78.1 g/L, the “average Lactic Acid” value worked out at 3.2 g/L, the “% delta Ethanol” value is 0.6% and the “% delta Lactic Acid” value was −2.8%. Moreover, in the data set on multi-strain LAB culture (AA13 dose 50 ug/g-DS), the “average Ethanol” value worked out at 79.1 g/L, the “average Lactic Acid” value is 3.2 g/L, the “% delta Ethanol” value turned out to be 1.9% and the “% delta Lactic Acid” value is listed as −4.8%.
“Acrostalagmus luteoalbus: Acrostalagmus luteoalbus AA13 polypeptide of SEQ ID NO: 129”: in the data set with multi-strain LAB culture (AA13 dose 10 ug/g-DS), the “average Ethanol” value came out at 78.9 g/L, the “average Lactic Acid” value amounted to 3.0 g/L, the “% delta Ethanol” value came to 1.7% and the “% delta Lactic Acid” value is −10.9%. Further, in the data set on multi-strain LAB culture (AA13 dose 50 ug/g-DS), the “average Ethanol” value amounted to 80.0 g/L, the “average Lactic Acid” value is 2.9 g/L, the “% delta Ethanol” value was determined as 3.0% and the “% delta Lactic Acid” value is −13.2%.
For “Penicillium roseopurpureum: Penicillium roseopurpureum AA13 polypeptide of SEQ ID NO: 139”, in the data set with multi-strain LAB culture (AA13 dose 10 ug/g-DS), the “average Ethanol” value is reported as 78.0 g/L, the “average Lactic Acid” value stood at 3.3 g/L, the “% delta Ethanol” value worked out at 0.5% and the “% delta Lactic Acid” value is listed as −1.3%. In the data set with multi-strain LAB culture (AA13 dose 50 ug/g-DS), the “average Ethanol” value was 78.1 g/L, the “average Lactic Acid” value amounted to 3.3 g/L, the “% delta Ethanol” value was determined as 0.6% and the “% delta Lactic Acid” value is given as −1.8%.

B1: Pfu S: commercial product Pyrococcus furiosus protease (Pfu S), SEQ ID NO: 111 (protein, listed as Pyrococcus furiosus)
chain: AELEGLDESAAQVMATYVWNLGYDGSGITIGIIDTGIDASHPDLQGKVIGWVDFVNGRSYPYDDHGHGTHVASIAAGTGAASNGKYKGMAPGAKLAGIKVLGADGSGSISTIIKGVEWAVDNKDKYGIKVINLSLGSSQSSDGTDALSQAVNAAWDAGLVVVVAAGNSGPNKYTIGSPAAASKVITVGAVDKYDVITSFSSRGPTADGRLKPEVVAPGNWIIAARASGTSMGQPINDYYTAAPGTSMATPHVAGIAALLLQAHPSWTPDKVKTALIETADIVKPDEIADIAYGAGRVNAYKAINYDNYAKLVFTGYVANKGSQTHQFVISGASFVTATLYWDNANSDLDLYLYDPNGNQVDYSYTAYYGFEKVGYYNPTDGTWTIKVVSYSGSANYQVDVVSDGSLSQPGSS
Consider B1, for which, in data set [1], the “thermostability (Relative Activity 80° C./70° C.)” value was 110% and the “thermostability (Relative Activity 90° C./70° C.)” value was 103%.
